From paper PMC7248975, “Sigma-1 Receptor Positron Emission Tomography: A New Molecular Imaging Approach Using (S)-(−)-[^18F]Fluspidine in Glioblastoma” (Molecules, 2020)

Columns and labels:
sigma-1 receptor (sig1R) [1] = molecular target: T1, sigma-1 receptor (sig1R) (Homo sapiens, UniProt Q99720); experiment: radioligand binding and displacement of (+)-[3H]pentazocine in U87-MG cells; autoradiography of tumour
T1 construct: gene SIGMAR1; U87-MG cells

sigma-1 receptor (sig1R) [2] = molecular target: T2, sigma-1 receptor (sig1R) (Mus musculus, UniProt O55242); experiment: homologous radioligand displacement by autoradiography; PET in sig1R-knockout vs control mice
T2 construct: gene Sigmar1; mouse brain cryosections, contralateral striatum
T2 sequence (O55242 whole entry): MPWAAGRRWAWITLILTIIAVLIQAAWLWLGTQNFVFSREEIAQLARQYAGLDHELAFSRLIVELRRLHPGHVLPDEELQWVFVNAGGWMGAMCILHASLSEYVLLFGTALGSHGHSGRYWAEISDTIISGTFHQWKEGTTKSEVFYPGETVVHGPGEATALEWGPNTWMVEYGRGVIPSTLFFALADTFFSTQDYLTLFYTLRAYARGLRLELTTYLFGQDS

T1 sequence (Q99720 whole entry): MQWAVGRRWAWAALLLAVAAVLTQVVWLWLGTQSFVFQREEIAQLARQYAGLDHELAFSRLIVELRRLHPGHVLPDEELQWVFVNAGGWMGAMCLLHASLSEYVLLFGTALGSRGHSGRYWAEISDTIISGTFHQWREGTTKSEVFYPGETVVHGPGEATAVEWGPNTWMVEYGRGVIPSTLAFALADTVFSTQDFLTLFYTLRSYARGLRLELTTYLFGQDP

Question: `FCC[C@@H]1OC2(CCN(Cc3ccccc3)CC2)c2ccccc21` [(S)-(−)-[^18F]fluspidine] was tested. Which Kd (sigma-1 receptor (sig1R) [1]) did it give?
Answer: 16.7 nM

Question: And the Kd (sigma-1 receptor (sig1R) [2])?
Answer: 17 ± 4.8 nM
